According to BindingDB's records for doi:10.1021/jm00011a008 (Upjohn, 1995):

molecular target: T1, Dimer of Gag-Pol polyprotein [489-587] (Human immunodeficiency virus 1, UniProt P12497); assay: Protease Inhibition Assay; conditions: pH 5; 22 °C
T1 construct: 489-587
From the text: HIV-1 protease was purified and refolded from E. coli inclusion bodies. […] In the presence of HIV-l protease, the substrate is rapidly cleaved into two parts. The biotinylated amino terminal fragment binds to the avidin beads while the FITC-containing carboxy1 terminal fragment is removed through the membrane. […] The bound fluorescence is obtained by processing on an IDEXX Screen Machine. Determination of Ki values with this assay requires analysis under conditions in which substrate concentration resides substantially below Km and the inhibitor concentrations greatly exceeds the Ki value and the enzyme concentration.

In order of falling Ki:
1. O=c1oc2c(c(O)c1C(c1ccccc1)c1ccccc1)CCCCCC2 [3-(Diphenylmethyl)-5,6,7,8,9,1O-hexahydro-4-hydroxy-W-cycloocta[b]pyran-2-one]  0.18 µM
2. CC(C)CC(c1ccccc1)c1c(O)c2c(oc1=O)CCCCCC2 (stereo not drawn) [5,6,7,8,9,1O-Hexahydro-4-hydroxy-3-(3-methyl-l-phe-nylbutyl)-W-cycloocta[b]pyran-2-one]  0.09 µM
3. CCCCC(c1ccccc1)c1c(O)c2c(oc1=O)CCCCCC2 (stereo not given) [5,6,7,8,9,10-Hexahydroro-4-hydroxy-1-phenylpentyl)-W-cycloocta[blpyran-2-one]  0.062 µM
4. CCCC(c1ccccc1)c1c(O)c2c(oc1=O)CCCCCC2 (stereo not given) [4-hydroxy-3-(1-phenylbutyl)-2H,5H,6H,7H,8H,9H,10H-cycloocta[b]pyran-2-one]  0.029 µM
5. CC(C)C(c1ccccc1)c1c(O)c2c(oc1=O)CCCCCC2 (stereo not given) [5,6,7,8,9,1O-Hexahydro-4-hydroxy-3-(2-methyl-nylpropyl)-W-cycloocta[b]pyran-2-one]  0.022 µM
